Measured values reported in patent US9102591B2, “Benzamides” (H. Lundbeck A/S, priority 2012, dated 2015).

target: P2X7 receptor (Homo sapiens (Human), UniProt Q99572); test: P2X7 FLIPR assay (BzATP-stimulated calcium fluorescence, antagonist IC50); assay type: cell-based
In short: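 Cells expressing P2X7 receptor (human, rat or mouse), plated 24 hours earlier in low-serum medium, loaded with Fluo-4 NW dye (30 min 37° C, 30 min room temperature).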

Sequence of P2X7 receptor (Q99572 whole entry): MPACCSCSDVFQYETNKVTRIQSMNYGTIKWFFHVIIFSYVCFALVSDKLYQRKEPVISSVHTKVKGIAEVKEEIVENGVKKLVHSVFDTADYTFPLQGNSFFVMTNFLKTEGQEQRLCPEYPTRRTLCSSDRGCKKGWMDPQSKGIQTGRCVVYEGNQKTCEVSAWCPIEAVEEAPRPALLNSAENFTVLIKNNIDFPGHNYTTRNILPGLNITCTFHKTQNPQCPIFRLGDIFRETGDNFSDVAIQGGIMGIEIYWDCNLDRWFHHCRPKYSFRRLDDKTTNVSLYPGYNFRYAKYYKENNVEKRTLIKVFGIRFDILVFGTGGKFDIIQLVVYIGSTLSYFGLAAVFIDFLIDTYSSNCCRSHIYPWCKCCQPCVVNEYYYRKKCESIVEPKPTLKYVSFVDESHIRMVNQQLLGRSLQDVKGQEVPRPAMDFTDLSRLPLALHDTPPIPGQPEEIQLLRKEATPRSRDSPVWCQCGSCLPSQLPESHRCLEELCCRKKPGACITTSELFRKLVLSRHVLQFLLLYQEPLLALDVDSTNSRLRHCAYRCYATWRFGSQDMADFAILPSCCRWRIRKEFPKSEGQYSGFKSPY

**Q.** How did the IC50 turn out when Cc1cccc(C(=O)NCC2(c3ccc(Cl)cc3)CCOCC2)c1C [N-[4-(4-Chloro-phenyl)-tetrahydro-pyran-4-ylmethyl]-2,3-dimethyl-benzamide] was run?
**A.** 170 nM

**Q.** With O=C(NCC1(c2ccc(Cl)cc2)CCOCC1)c1cc(F)ccc1F [N-[4-(4-Chloro-phenyl)-tetrahydro-pyran-4-ylmethyl]-2,5-difluoro-benzamide] as the compound, how does the IC50 read?
**A.** 3000 nM

**Q.** How did the IC50 turn out when O=C(NCC1(c2ccc(Cl)cc2)CCOCC1)c1cccc(C(F)(F)F)c1F [N-[4-(4-Chloro-phenyl)-tetrahydro-pyran-4-ylmethyl]-2-fluoro-3-trifluoromethyl-benzamide] was run?
**A.** 4300 nM

**Q.** For COc1ccccc1C(=O)NCC1(c2ccc(Cl)cc2)CCOCC1 [N-[4-(4-Chloro-phenyl)-tetrahydro-pyran-4-ylmethyl]-2-methoxy-benzamide], which IC50 is on record?
**A.** 620 nM

**Q.** Cc1ccccc1C(=O)NCC1(c2ccc(Cl)cc2)CCOCC1 [N-[4-(4-Chloro-phenyl)-tetrahydro-pyran-4-ylmethyl]-2-methyl-benzamide] was tested. Which IC50 did it give?
**A.** 2100 nM

**Q.** Which IC50 does the source give for O=C(NCC1(c2ccc(Cl)cc2)CCOCC1)c1ccccc1C(F)(F)F [N-[4-(4-Chloro-phenyl)-tetrahydro-pyran-4-ylmethyl]-2-trifluoromethyl-benzamide] here?
**A.** 1200 nM

**Q.** Which IC50 does the source give for “(−)2,3-dichloro-N-[3-cyclopropyl-2]benzamide” here?
**A.** 1.9 nM
